The term ILS denotes the gain in survival time of treated over control animals, in per cent.

Each structure is given as a SMILES string. Values after ≈ are worked out from the molar mass of the structure shown.

From US4670461A, “Formaldehyde derivatives of mitindomide” (priority 1984, dated 1987) come the findings set out here.

One series can be described thus: Water solubility. The following applies: for solubility: read-out: H2O Sol. % (g per 100 ml H2O). It counts as physicochemical.
The subject of series [1] is L1210 leukemia. Briefly: S.C. implanted L1210 leukemia in mice (CD2F1). It counts as in vivo.
Text: ^a Experimental formulation of mitindomide was used (NaOH + manitol).
The test system of series [2] is L1210 leukemia. The experiment in a line: IP implanted L1210 leukemia in mice (CD2F1). It counts as in vivo.
The test system of the next series is P388. The experiment in a line: IP P388, Days 1-9 (NCI murine test system). It counts as in vivo. The following applies: IP P388, Days 1-9, dose 400. The procedure:
Anti-tumor or anti-neoplastic activity of the novel derivatives of the present invention is determined by using the murine test system for screening anti-cancer compounds as standardized by the National Cancer Institute, Bethesda, Md., U.S.A., and described in Cancer Chemotherapy Reports, 3 (2) 1-103 (1972) which publication is incorporated herein by reference.
It is noted that although the intraperitoneal mode of administration of the novel derivatives is preferred, other modes of parenteral administration, e.g. subcutaneous, intravenous, etc., are, of course, possible and included within the purview of this invention. Similarly, although water has been used as a vehicle for the administration of the compounds of the present invention, other pharmaceutically acceptable vehicles, e.g. saline, buffers, and other aqueous media may also be used for the administration of these compounds together with adjuvants, agents or additives commonly employed in the preparation of pharmaceutical compositions. Examples of such agents, additives and adjuvants that may be employed are listed in Instruction 14, Screening Data Summary Interpretation and Outline of Clinical Screen. Drug Evaluation Branch, NCI. and are incorporated herein by reference.

Setting [3] is: 21.6 mg/kg ip days 1-9, Expt. 1.
Setting [4] is: 21.6 mg/kg ip days 1-9, Expt. 2.
The mark [5] stands for this setting: 36.0 mg/kg ip days 1-9, Expt. 1.
Where [6] appears, read: 36.0 mg/kg ip days 1-9, Expt. 2.
Setting [7] is: 60.0 mg/kg ip days 1-9, Expt. 1.
Setting [8] is: 60.0 mg/kg ip days 1-9, Expt. 2.
The mark [9] stands for this setting: 100.0 mg/kg ip days 1-9, Expt. 1.
The mark [10] stands for this setting: 100.0 mg/kg ip days 1-9, Expt. 2.
Setting [11] is: 166.7 mg/kg ip days 1-9, Expt. 2.
[12] abbreviates: 21.6 mg/kg IP days 1-9, Expt. 1.
Setting [13] is: 21.6 mg/kg IP days 1-9, Expt. 2.
Where [14] appears, read: 21.6 mg/kg IP days 1-9, Expt. 3.
Where [15] appears, read: 166.7 mg/kg IP days 1-9, Expt. 1.
Where [16] appears, read: 166.7 mg/kg IP days 1-9, Expt. 3.

With `O=C1C2C3C=CC(C2C(=O)N1CN1CCSCC1)C1C2C(=O)N(CN4CCSCC4)C(=O)C2C31` (centres unmarked) [Example 6, 4,8-Ethenopyrrolo[3'4':3,4]cyclobut[1,2-f]isoindole-1,3,5,7(2H,6H)-tetrone,3a,3b,4,4a,7a,8,8a,8-octahydro-2,6-bis(thiomorpholinomethyl)], the solubility in the series “Water solubility” (water) came to 1000 µg/mL (≈ 1.99 mM).

Take `NCC(=O)OCN1C(=O)C2C3C=CC(C2C1=O)C1C2C(=O)N(COC(=O)CN)C(=O)C2C31` (centres unmarked) [Example 9, 4,8-Ethenopyrrolo[3',4':3,4]cyclobut[1,2-f]isoindole-1,3,5,7(2H,6H)-tetrone,3a,3b,4,4a,7a,8,8a,8b-octahydro-2-,6bis(2-aminoacetyloxymethyl)]: in the series “Water solubility” (water), the solubility came to 20000 µg/mL (≈ 44.8 mM).

Take `CN1CCN(CN2C(=O)C3C4C=CC(C3C2=O)C2C3C(=O)N(CN5CCN(C)CC5)C(=O)C3C42)CC1` (centres unmarked) [Example 3, 4,8-Ethenopyrrolo[3'4':3,4]cyclobut[1,2-f]isoindole-1,3,5,7(2H,6H)-tetrone,3a,3b,4,4a,7a,8,8a,8b-octahydro-2,6-bis(N-methylpiperazinomethyl)]: the ILS in the series on L1210 leukemia [1] (setting [3]) was 6%; with L1210 leukemia [1] (setting [4]), 10%; in the series with L1210 leukemia [1] (setting [5]) it was 13%; in the series with L1210 leukemia [1] (setting [6]), 5%; in the series with L1210 leukemia [1] (setting [7]), 70%; in the series on L1210 leukemia [1] (setting [8]), 14%. The ILS was 143% in the series with L1210 leukemia [1] (setting [9]); 72% with L1210 leukemia [1] (setting [10]); 133% in the series on L1210 leukemia [1] (setting [11]); 4% with L1210 leukemia [2] (setting [12]); 3% in the series with L1210 leukemia [2] (setting [13]); 9% with L1210 leukemia [2] (setting [14]). Moreover, the ILS with L1210 leukemia [2] (36 mg/kg IP days 1-9, Expt. 1) was determined as 5%; in the series with L1210 leukemia [2] (36 mg/kg IP days 1-9, Expt. 2), 12%; with L1210 leukemia [2] (36 mg/kg IP days 1-9, Expt. 3) it was 9%; with L1210 leukemia [2] (60 mg/kg IP days 1-9, Expt. 1) it was 37%; in the series on L1210 leukemia [2] (60 mg/kg IP days 1-9, Expt. 2) it was 75%; in the series with L1210 leukemia [2] (60 mg/kg IP days 1-9, Expt. 3), 46%. The increase in lifespan (ILS) in the series with L1210 leukemia [2] (100 mg/kg IP days 1-9, Expt. 1) was determined as 37%; with L1210 leukemia [2] (100 mg/kg IP days 1-9, Expt. 2), 141%; in the series with L1210 leukemia [2] (100 mg/kg IP days 1-9, Expt. 3), 95%; with L1210 leukemia [2] (setting [16]), 156%. Besides, the MST is 8.7 days with L1210 leukemia [1] (setting [3]); 11.8 days with L1210 leukemia [1] (setting [4]); 9.3 days in the series with L1210 leukemia [1] (setting [5]); 11.3 days with L1210 leukemia [1] (setting [6]); 14.0 days in the series on L1210 leukemia [1] (setting [7]); 12.3 days in the series with L1210 leukemia [1] (setting [8]). Further, the MST in the series with L1210 leukemia [1] (setting [9]) turned out to be 20.0 days; in the series with L1210 leukemia [1] (setting [10]), 18.5 days; in the series with L1210 leukemia [1] (setting [11]) it was 25.0 days; in the series on L1210 leukemia [2] (setting [12]), 9.1 days; in the series with L1210 leukemia [2] (setting [13]), 8.3 days; in the series on L1210 leukemia [2] (setting [14]), 9.0 days. Moreover, the MST in the series on L1210 leukemia [2] (36 mg/kg IP days 1-9, Expt. 1) is listed as 9.2 days; with L1210 leukemia [2] (36 mg/kg IP days 1-9, Expt. 2), 9.0 days; in the series with L1210 leukemia [2] (36 mg/kg IP days 1-9, Expt. 3), 9.0 days; in the series with L1210 leukemia [2] (60 mg/kg IP days 1-9, Expt. 1), 12.0 days; in the series on L1210 leukemia [2] (60 mg/kg IP days 1-9, Expt. 2) it was 14.0 days; with L1210 leukemia [2] (60 mg/kg IP days 1-9, Expt. 3) it was 12.0 days. Further, the MST was determined as 12.0 days in the series with L1210 leukemia [2] (100 mg/kg IP days 1-9, Expt. 1); 19.3 days in the series on L1210 leukemia [2] (100 mg/kg IP days 1-9, Expt. 2); 16.0 days in the series with L1210 leukemia [2] (100 mg/kg IP days 1-9, Expt. 3); 6.3 days in the series with L1210 leukemia [2] (setting [15]); 21.0 days in the series on L1210 leukemia [2] (setting [16]). For the same compound, the “Wt. Change” value is -0.3 g in the series with L1210 leukemia [1] (setting [3]); 0.2 g in the series with L1210 leukemia [1] (setting [4]); -1.0 g with L1210 leukemia [1] (setting [5]); -0.4 g in the series with L1210 leukemia [1] (setting [6]); -4.2 g in the series on L1210 leukemia [1] (setting [7]); -0.7 g in the series on L1210 leukemia [1] (setting [8]). For the same compound, the “Wt. Change” value with L1210 leukemia [1] (setting [9]) is -5.3 g; with L1210 leukemia [1] (setting [10]), -3.1 g; in the series with L1210 leukemia [1] (setting [11]), -4.9 g; in the series on L1210 leukemia [2] (setting [12]), 1.9 g; with L1210 leukemia [2] (setting [13]), 0.7 g; in the series with L1210 leukemia [2] (setting [14]), 0.2 g. In addition, the “Wt. Change” value with L1210 leukemia [2] (36 mg/kg IP days 1-9, Expt. 1) is 1.7 g; with L1210 leukemia [2] (36 mg/kg IP days 1-9, Expt. 2), -0.5 g; in the series on L1210 leukemia [2] (36 mg/kg IP days 1-9, Expt. 3), 0.2 g; in the series with L1210 leukemia [2] (60 mg/kg IP days 1-9, Expt. 1), -0.4 g; in the series on L1210 leukemia [2] (60 mg/kg IP days 1-9, Expt. 2), -4.4 g; in the series with L1210 leukemia [2] (60 mg/kg IP days 1-9, Expt. 3), -1.3 g. Moreover, the “Wt. Change” value in the series on L1210 leukemia [2] (100 mg/kg IP days 1-9, Expt. 1) was -2.9 g; with L1210 leukemia [2] (100 mg/kg IP days 1-9, Expt. 2), -4.8 g; in the series on L1210 leukemia [2] (100 mg/kg IP days 1-9, Expt. 3), -3.1 g; in the series on L1210 leukemia [2] (setting [15]), -5.2 g; in the series with L1210 leukemia [2] (setting [16]), -5.2 g. For the same compound, the “H2O Sol. % (g per 100 ml H2O)” value in the series “Water solubility” (water) is 1.5 % (g per 100 ml H2O). Also, the “solubility of dosed preparation” value in the series with L1210 leukemia [2] (Table 4 Expt. 1, vehicle water, 60 mg/kg and higher) is “insoluble”.

For `O=C(O)CCC(=O)OCN1C(=O)C2C3C=CC(C2C1=O)C1C2C(=O)N(COC(=O)CCC(=O)O)C(=O)C2C31` (centres unmarked) [Example 10, 4,8-Ethenopyrrolo[3',4':3,4]cyclobut[1,2-f]isoindole-1,3,5,7(2H,6H)-tetrone,3a,3b,4,4a,7a,8,8a,8b-octahydro-2-,6-bis(succinyloxymethyl)], the solubility in water entry in the series “Water solubility” (freeze-dried powder after pH adjusted to 6.33 with sodium bicarbonate) is “readily soluble in water”; in “Water solubility” (title compound, 2.4 g mixed with 150 ml of water), “not soluble”. For the same compound, in the series “Water solubility” (water), the solubility amounted to 20000 µg/mL (≈ 37.6 mM).

Turning to `O=C1C2C3C=CC(C2C(=O)N1CO)C1C2C(=O)N(CO)C(=O)C2C31` (centres unmarked) [Example 2, 4,8-Ethenopyrrolo[3',4':3,4]cyclobut[1,2-f]isoindole-1,3,5,7(2H,6H)-tetrone,3a,3b,4,4a,7a,8,8a,8b-octahydro-2-,6-bis(hydroxymethyl)-], in “Water solubility” (water), the solubility was determined as 8000 µg/mL (≈ 24.1 mM).

Regarding `O=C1C2C3C=CC(C2C(=O)N1CN1CCOCC1)C1C2C(=O)N(CN4CCOCC4)C(=O)C2C31` (centres unmarked) [Example 5, 4,8-Ethenopyrro[3',4':3,4]cyclobut[1,2-f]isoindole-1,3,5,7(2H,6H)-tetrone,3a,3b,4,4a,7a,8,8a,8b-octahydro-2,6-bis(morpholinomethyl)], the solubility in “Water solubility” (water) was 1000 µg/mL (≈ 2.13 mM).

In the case of `CCN(CC)CN1C(=O)C2C3C=CC(C2C1=O)C1C2C(=O)N(CN(CC)CC)C(=O)C2C31` (centres unmarked) [Example 7, 4,8-Ethenopyrrolo[3',4':3,4]cyclobut[1,2-f]isoindole-1,3,5,7(2H,6H)-tetrone,3a,3b,4,4a,7a,8,8a,8b-octahydro-2,6-bis(N,N-diethylaminomethyl)], the solubility in “Water solubility” (water) amounted to 1000 µg/mL (≈ 2.26 mM).

On to `CC(=O)OCN1C(=O)C2C3C=CC(C2C1=O)C1C2C(=O)N(COC(C)=O)C(=O)C2C31` (centres unmarked) [Example 8, 4,8-Ethenopyrrolo3',4':3,4cyclobut[1,2-f]isoindole-1,3,5,7(2H,6H)-tetrone,3a,3b,4,4a,7a,8a,8b-octahydro-2,6-bis(acetyloxymethyl)], for which the solubility in “Water solubility” (water) is 1000 µg/mL (≈ 2.4 mM). Further, in the series on P388, the T/C is recorded as 208 and the “fraction printed in brackets behind T/C (not explained)” value is 1/5.

Regarding `CC(=O)OC(C(=O)O)N1C(=O)C2C3C=CC(C2C1=O)C1C2C(=O)N(C(OC(C)=O)C(=O)O)C(=O)C2C31` (centres unmarked) [Example 11], in the series “Water solubility” (freeze-dried solid after pH adjusted to 6.11 with sodium bicarbonate), the solubility in water entry is reported as “soluble in water”. In addition, the solubility in “Water solubility” (water) turned out to be 50000 µg/mL (≈ 99.1 mM).
